Read-outs that look alike come from different tables or passages of the source.
Key:
[1] = test system: mouse FL5.12 cells transfected with Bcl-XL; experiment: FL5.12 cellular assay (cell viability, CellTiter-Glo); format: cell-based; details: FL5.12 cells transfected with Bcl-XL, IL-3-depleted, 3% FBS assay media, 24 hours, CellTiter-Glo, read-out: FL5.12 Bcl-xL, - IL3, EC 50;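 further: each EC50 determination derived from duplicate measurements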
GST-Bcl-xL = GST-Bcl-xL (Homo sapiens, UniProt Q07817); details: read-out: TR-FRET binding Bcl-xL Ki
Chain of GST-Bcl-xL (Q07817 whole entry): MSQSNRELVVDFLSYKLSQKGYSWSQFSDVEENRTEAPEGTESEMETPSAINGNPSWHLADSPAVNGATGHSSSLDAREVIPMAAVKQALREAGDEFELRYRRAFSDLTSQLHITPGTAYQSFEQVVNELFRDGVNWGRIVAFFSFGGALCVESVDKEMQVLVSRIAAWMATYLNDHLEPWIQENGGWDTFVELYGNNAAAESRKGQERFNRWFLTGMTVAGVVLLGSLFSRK

Compound | EC50 ([1]; Mus musculus) [nM] | Ki (GST-Bcl-xL) [nM] | EC50 [1] [nM]
O=Cc1cccc(Cn2cc(-c3ccc(N4CCc5cccc(C(=O)Nc6nc7ccccc7s6)c5C4)nc3C(=O)O)cn2)c1 [Example 64, 6-[8-(1,3-benzothiazol-2-ylcarbamoyl)-3,4-dihydroisoquinolin-2(1H)-yl]-3-[1-(3-formylbenzyl)-1H-pyrazol-4-yl]pyridine-2-carboxylic acid] | > 1000 | 61 | 
O=C(Nc1nc2ccccc2s1)c1cccc2c1CN(c1ccc(-c3cnn(Cc4ccccc4O)c3)c(C(=O)O)n1)CC2 [Example 36, 6-[8-(1,3-benzothiazol-2-ylcarbamoyl)-3,4-dihydroisoquinolin-2(1H)-yl]-3-[1-(2-hydroxybenzyl)-1H-pyrazol-4-yl]pyridine-2-carboxylic acid] | > 1000 | 8 | 
COCCCC1(Cn2ncc(-c3ccc(N4CCc5cccc(C(=O)Nc6nc7ccccc7s6)c5C4)nc3C(=O)O)c2C)CCCCC1 [Example 97, 6-[8-(1,3-benzothiazol-2-ylcarbamoyl)-3,4-dihydroisoquinolin-2(1H)-yl]-3-(1-{[1-(3-methoxypropyl)cyclohexyl]methyl}-5-methyl-1H-pyrazol-4-yl)pyridine-2-carboxylic acid] |  | 2 | < 1
COCCOC1(Cn2ncc(-c3ccc(N4CCc5cccc(C(=O)Nc6nc7ccccc7s6)c5C4)nc3C(=O)O)c2C)CCCCC1 [Example 101, 6-[8-(1,3-benzothiazol-2-ylcarbamoyl)-3,4-dihydroisoquinolin-2(1H)-yl]-3-(1-{[1-(2-methoxyethoxy)cyclohexyl]methyl}-5-methyl-1H-pyrazol-4-yl)pyridine-2-carboxylic acid] | < 1 | 0.4 | 
Cc1c(-c2ccc(N3CCc4cccc(C(=O)Nc5nc6ccccc6s5)c4C3)nc2C(=O)O)cnn1Cc1ccccc1OCCN(C)C [Example 49, 6-[8-(1,3-benzothiazol-2-ylcarbamoyl)-3,4-dihydroisoquinolin-2(1H)-yl]-3-(1-{2-[2-(dimethylamino)ethoxy]benzyl}-5-methyl-1H-pyrazol-4-yl)pyridine-2-carboxylic acid] | 12 | 0.6 | 
CS(=O)(=O)c1cccc(Cn2cc(-c3ccc(N4CCc5cccc(C(=O)Nc6nc7ccccc7s6)c5C4)nc3C(=O)O)cn2)c1 [Example 69, 6-[8-(1,3-benzothiazol-2-ylcarbamoyl)-3,4-dihydroisoquinolin-2(1H)-yl]-3-{1-[3-(methylsulfonyl)benzyl]-1H-pyrazol-4-yl}pyridine-2-carboxylic acid] | > 1000 | 91 | 
O=C(Nc1nc2ccccc2s1)c1cccc2c1CN(c1ccc(-c3cnn(C(CC4CCCCC4)c4ccccc4)c3)c(C(=O)O)n1)CC2 (stereo not shown) [Example 96, 6-[8-(1,3-benzothiazol-2-ylcarbamoyl)-3,4-dihydroisoquinolin-2(1H)-yl]-3-[1-(2-cyclohexyl-1-phenylethyl)-1H-pyrazol-4-yl]pyridine-2-carboxylic acid] | 620 | 12 | 
O=C(Nc1nc2ccccc2s1)c1cccc2c1CN(c1ccc(-c3cn(Cc4ccccc4)c4ncccc34)c(C(=O)O)n1)CC2 [Example 141, 6-[8-(1,3-benzothiazol-2-ylcarbamoyl)-3,4-dihydroisoquinolin-2(1H)-yl]-3-(1-benzyl-1H-pyrrolo[2,3-b]pyridin-3-yl)pyridine-2-carboxylic acid] | 433 | 1 | 
Cc1c(-c2ccc(N3CCc4cccc(C(=O)Nc5nc6ccccc6s5)c4C3)nc2C(=O)O)cnn1Cc1ccccc1OCC1COCCO1 (stereo not shown) [Example 100, 6-[8-(1,3-benzothiazol-2-ylcarbamoyl)-3,4-dihydroisoquinolin-2(1H)-yl]-3-{1-[2-(1,4-dioxan-2-ylmethoxy)benzyl]-5-methyl-1H-pyrazol-4-yl}pyridine-2-carboxylic acid] | 66 | 3 | 
O=C(Nc1nc2ccccc2s1)c1cccc2c1CN(c1ccc(-c3cnn(Cc4cccc(F)c4F)c3)c(C(=O)O)n1)CC2 [Example 52, 6-[8-(1,3-benzothiazol-2-ylcarbamoyl)-3,4-dihydroisoquinolin-2(1H)-yl]-3-[1-(2,3-difluorobenzyl)-1H-pyrazol-4-yl]pyridine-2-carboxylic acid] | 570 | 18 | 
CN(C)c1cccc(Cn2cc(-c3ccc(N4CCc5cccc(C(=O)Nc6nc7ccccc7s6)c5C4)nc3C(=O)O)cn2)c1 [Example 34, 6-[8-(1,3-benzothiazol-2-ylcarbamoyl)-3,4-dihydroisoquinolin-2(1H)-yl]-3-{1-[3-(dimethylamino)benzyl]-1H-pyrazol-4-yl}pyridine-2-carboxylic acid] | 907 | 23 | 
COCCC(c1ccccc1)n1cc(-c2ccc(N3CCc4cccc(C(=O)Nc5nc6ccccc6s5)c4C3)nc2C(=O)O)cn1 (stereo not shown) [Example 93, 6-[8-(1,3-benzothiazol-2-ylcarbamoyl)-3,4-dihydroisoquinolin-2(1H)-yl]-3-[1-(3-methoxy-1-phenylpropyl)-1H-pyrazol-4-yl]pyridine-2-carboxylic acid] | 295 | 16 | 
O=C(Nc1nc2ccccc2s1)c1cccc2c1CN(c1ccc(-c3cnn(CCC4CCCCC4)c3)c(C(=O)O)n1)CC2 [Example 60, 6-[8-(1,3-benzothiazol-2-ylcarbamoyl)-3,4-dihydroisoquinolin-2(1H)-yl]-3-[1-(2-cyclohexylethyl)-1H-pyrazol-4-yl]pyridine-2-carboxylic acid] | 219 | 5 | 
COCCOC1(Cn2c(C#N)cc(-c3ccc(N4CCc5cccc(C(=O)Nc6nc7ccccc7s6)c5C4)nc3C(=O)O)c2C)CCCCCC1 [Example 172, 6-[8-(1,3-benzothiazol-2-ylcarbamoyl)-3,4-dihydroisoquinolin-2(1H)-yl]-3-(5-cyano-1-{[1-(2-methoxyethoxy)cycloheptyl]methyl}-2-methyl-1H-pyrrol-3-yl)pyridine-2-carboxylic acid] | 1 | < 0.1 | 
O=C(Nc1nc2ccccc2s1)c1cccc2c1CN(c1ccc(-c3cccc(OC4CCCCC4)c3F)c(C(=O)O)n1)CC2 [Example 119, 6-[8-(1,3-benzothiazol-2-ylcarbamoyl)-3,4-dihydroisoquinolin-2(1H)-yl]-3-[3-(cyclohexyloxy)-2-fluorophenyl]pyridine-2-carboxylic acid] |  | < 0.1 | 762
O=C(Nc1nc2ccccc2s1)c1cccc2c1CN(c1ccc(-c3cnn(Cc4ccc(F)c([N+](=O)[O-])c4)c3)c(C(=O)O)n1)CC2 [Example 45, 6-[8-(1,3-benzothiazol-2-ylcarbamoyl)-3,4-dihydroisoquinolin-2(1H)-yl]-3-[1-(4-fluoro-3-nitrobenzyl)-1H-pyrazol-4-yl]pyridine-2-carboxylic acid] | > 1000 | 19 | 
O=C(Nc1nc2ccccc2s1)c1cccc2c1CN(c1ccc(-c3cnn(C(CCN4CCOCC4)c4ccccc4)c3)c(C(=O)O)n1)CC2 (stereo not shown) [Example 77, 6-[8-(1,3-benzothiazol-2-ylcarbamoyl)-3,4-dihydroisoquinolin-2(1H)-yl]-3-{1-[3-(morpholin-4-yl)-1-phenylpropyl]-1H-pyrazol-4-yl}pyridine-2-carboxylic acid] | 431 | 10 | 

Reference: patent EP2768830B1, “APOPTOSIS-INDUCING AGENTS FOR THE TREATMENT OF CANCER AND IMMUNE AND AUTOIMMUNE DISEASES” (AbbVie Inc., priority 2011, dated 2013)
